{"source": "patent US20210290680A1", "about": "“METHODS AND COMPOSITIONS FOR MODULATING CELLULAR AGING” (Dorian Therapeutics, Inc., priority 2019, published 2021)", "format_in_all_cases": "cell-based, human", "key": {"USP16": {"test_system": "USP16", "experiment": "qPCR of USP16 expression", "settings": "for downregulation of USP16 (Ctrl vs shRNA): primary T cells, day 15", "excerpt": "A new set of shRNAs were cloned into the pSIH backbone, where the shRNA expression is driven by the H1 promoter. The vector was also engineered to co-express GFP and Puromycin resistance through a T2A sequence. The new shRNA sequences were: shUSP16 #1 5′-[…]-3′ (SEQ ID NO: 8) and shUSP16 #2 5′-[…]-3′ (SEQ ID NO: 9). Primary T cells were activated as described (Example 3), transduced with a lentivirus encoding either a shUSP16 #1, shUSP16 #2 or a scrambled shRNA (Control) and cells were selected with puromycin at day 6. Between 1 and 1.25×10^6 cells were plated post-puromycin selection with a purity higher than 90% and counted every 2-4 days by Trypan Blue exclusion using Vi-CELL XR cell counter (Beckman Coulter). qPCR was performed to verify downregulation of USP16 expression (FIG. 14A) and the expression of the senescent marker CDKN1A (FIG. 14B) at day 15. Proliferation was measured as fold increased compared to shControl at day 15 post-activation. The experiment was repeated using primary T cells obtained from buffy coats of 3 different healthy donors.\nPrimary T cells were activated as described (Example 3). At Day 6 post-activation, dynabeads were removed and T cells electroporated using the Neon Transfection System (ThermoFisher) with a 2.5:1 ratio sgRNA:Cas9. The experiment was performed following the protocol optimized for primary T cell by Synthego (CRISPR Editing Human Primary CD4+ T cells with RNPs using Neon Electroporation Protocol, 2018 version). The sgRNA used are the following: gUSP16 #1 5′-[…]-3′ (SEQ ID NO: 10) and gSynthego that comprises 3 different sgRNAs (gRNA-A: 5′-[…] 3′ (SEQ ID NO: 11); gRNA-B: 5′-[…]-3′ (SEQ ID NO: 12); gRNA-C: 5′-[…]-3′ (SEQ ID NO: 13)). Control T cells, identified as Mock, were electroporated but no Cas9:sgRNA mixture was added. […] At day 15 post-activation, cells were stained for CD4-PE, CD8-BV510, CD62L-Allophycocyanin and CD45RA-APC-Cy7 (Biolegend). Stem cell memory T cells (Tscm) were identified as Sytox^−GFP^+CD45RA^+CD62L^+ and graphed as ratio compared to mock cells (FIG. 22). The experiment was repeated using primary T cells obtained from buffy coats of 2 different healthy donors.\nPrimary T cells were activated as described (Example 3), transduced with a lentivirus encoding for either a CD19.CAR or a GD2.CAR co-expressing shUSP16 #1, shUSP16 #2 or a scrambled shRNA (Control). Cells were cultured in IL-2 and sorted between days 6-13 for EGFRt. Cells were plated post-sorting with a purity higher than 85% and counted every 2-4 days by Trypan Blue exclusion using Vi-CELL XR cell counter. Fifteen days post-activation both CD19.CAR and GD2.CAR T cells were collected, and qPCR was performed to verify downregulation of USP16 expression (FIG. 24) (fold change GD2.CAR (n=3): Control vs shUSP #1: 0.35, p<0.0001, and Control vs shUSP16 #2: 0.2452, p<0.0001, fold change CD19.CAR (n=4): Control vs shUSP #1: 0.2891, p<0.0001, and Control vs shUSP16 #2: 0.2566, p<0.0001). Proliferation was measured as fold increase compared to control cells at day 15 (FIG. 25)."}, "CHLA-55 cells": {"test_system": "CHLA-55 cells", "experiment": "Re-challenge cytotoxicity assay, GD2.CAR T cells", "settings": "after double tumor-challenge, n=3", "experimental": "Primary T cells were activated as described (Example 3), transduced with a lentivirus encoding for either a CD19.CAR or a GD2.CAR co-expressing shUSP16 #1, shUSP16 #2 or a scrambled shRNA (Control). Cells were cultured in IL-2 and sorted between days 6-13 for EGFRt. At day 16 cytotoxicity assays were performed. Briefly, cells were counted and 100,000 T cells (adjusted for EGFR expression) were plated at 1:5 Effector:Target (E:T) ratio. At 72 hours, the mixture of tumor cells and T cells were collected, stained for CD3-PE, CD8-BV510, CD19- or GD2-APC, EGFR-AF488 and Sytox and counted by flow cytometry (MACSQuant, Miltenyi Biotec) (FIGS. 30A and 30B). Counting beads (CountBright Absolute Counting beads, Invitrogen) were added before acquisition and absolute number was calculated as following (number of cell events/number of bead events)×(assigned bead count of the lot (beads/50 ul)/volume of sample (ul))=concentration of sample as cells/ul). NALM cells were used as target cells for CD19.CAR T cells and CHLA-55 cells were used as target for GD2.CAR T cells. Three different primary T cell cultures were tested for CD19 and GD2 CAR.\nAt day 16, regular cytotoxicity assays were also performed (Example 22). Three days post-antigen stimulation, CD19.CAR T cells were stained for EGFR-AF488 (R&D), CD3-PE, CD8-BV510, PD-1-Allophycocyanin and Lag-3 and CTLA4 (Biolegend) and acquired by MACSQuant (Miltenyi Biotec). The co-cultures we also re-challenged with the addition of fresh tumor cells. T cell killing and expansion upon double tumor-challenge was assessed after three days."}, "primary T cells": {"test_system": "primary T cells", "experiment": "T cell expansion / proliferation by Trypan Blue cell counts", "settings": "day 15 post-activation", "experimental": "On Day 0, buffycoats were obtained by a clinical facility, and PBMCs were isolated by density centrifugation using Ficoll™. CD3 enrichment was performed using magnetic beads, PanT cell isolation from Myltenyi Biotec. The T cells were activated with aCD^3/aCD28 Dynabeads (3:1 ratio).\nOn Day 2, a first round of transduction was performed with lentivirus. On Day 3, a second round of transduction was performed with lentivirus.\nOn Day 6, the beads were removed. On Day 6-8, Flow cytometry sorting was performed with a FACSAria II (BD).\nThe cells were cultured in RPMI, 10% FBS, penicillin-streptomycin, and 100IU of IL-2. Cells were plated at a density of 0.3×10^6 cells/ml until day 15, then 0.5×10^6 cells/ml and after day 25 at 1×10^6 cells/ml.\nA short hairpin RNA (shRNA) directed against USP16 (shUSP16) was purchased from Dharmacon. […] Between 0.15 and 0.5×10^6 cells were plated post-sorting with a purity higher than 90% and counted every 2-4 days by Trypan Blue exclusion using Vi-CELL XR cell counter (Beckman Coulter). Proliferation was measured as expansion ratio compared to the initial cell seeding. […]\nA new set of shRNAs were cloned into the pSIH backbone, where the shRNA expression is driven by the H1 promoter. […] Proliferation was measured as fold increased compared to shControl at day 15 post-activation. […]"}}}
{"substance": "shUSP16 #1: shRNA targeting USP16, 5′-GACTGTAAGACTGACAATAAA-3′ (SEQ ID NO: 8), pSIH backbone or co-expressed in CAR plasmid", "values": [{"measurement": "USP16 expression, fold change vs Control", "setting": "USP16; CD19.CAR T cells, day 15, n=4", "value": 0.2891}, {"measurement": "USP16 expression, fold change vs Control", "setting": "USP16; GD2.CAR T cells, day 15, n=3", "value": 0.35}, {"measurement": "downregulation of USP16 (Ctrl vs shRNA)", "setting": "USP16", "value": 56, "unit": "%"}, {"measurement": "CHLA-55 residual cells", "setting": "CHLA-55 cells", "value": 436500}, {"measurement": "T cell number", "setting": "CHLA-55 cells", "value": 404709}, {"measurement": "proliferation, fold increased compared to shControl", "setting": "primary T cells", "value": "about 1.31 folds"}]}
{"substance": "shUSP16 #2: shRNA targeting USP16, 5′-TATATCAGTTCACCCGTAAT-3′ (SEQ ID NO: 9), pSIH backbone or co-expressed in CAR plasmid", "values": [{"measurement": "USP16 expression, fold change vs Control", "setting": "USP16; CD19.CAR T cells, day 15, n=4", "value": 0.2566}, {"measurement": "USP16 expression, fold change vs Control", "setting": "USP16; GD2.CAR T cells, day 15, n=3", "value": 0.2452}, {"measurement": "downregulation of USP16 (Ctrl vs shRNA)", "setting": "USP16", "value": 53, "unit": "%"}, {"measurement": "CHLA-55 residual cells", "setting": "CHLA-55 cells", "value": 330610}, {"measurement": "T cell number", "setting": "CHLA-55 cells", "value": 722634}, {"measurement": "proliferation, fold increased compared to shControl", "setting": "primary T cells", "value": "~2.33", "unit": "folds"}]}
